{"source": "patent US5573773A", "about": "“Stable highly concentrated formulations of fluorescein derivatives” (Ciba Geigy Corporation, priority 1992, dated 1996)", "key": {"[1]": {"test_system": "human T24 carcinoma cells", "assay": "intracellular uptake and generation of fluorescein from FDA in T24 carcinoma cells by microscopic fluorimetry", "from_the_text": "(§3) After removal of FDA from the tissue culture medium, the generation of fluorescein from the cells can be measured. […] The intensity of fluorescence of intracellular fluorescein fades when the fluorescein is correspondingly excited. The higher the intracellular concentration of fluorescein at a given irradiation energy, the stonger this fading is: the lower level for a fading effect is 0.004 mmol/l of intracellular fluorescein for 71 mJ/mm^2 and 0.002 mmol/l for 560 mJ/mm^2 (irradiation time 120 seconds)."}, "rabbit lens epithelium": {"test_system": "rabbit lens epithelium", "assay": "cytotoxic effect of irradiation of intracellular fluorescein in vivo on rabbit lens epithelium", "protocol": "The cytotoxic effect of the irradiation of intracellular fluorescein with […] laser light (argon) is investigated in vivo on rabbit lens epithelium. This is done by first treating both rabbit eyes with Voltaren® eye drops (3 times over 24 hours) and expanding the pupillae with a mydriatic. The rabbits are operated on under a full anaesthetic. After a small incision of the cornea, the anterior chamber of the eye is thoroughly rinsed for 1 minute with sodium chloride solution (to remove natural chamber water), then slowly rinsed with 5 ml of FDA solution (1 ml/min) and filled, thereafter kept for a further 5 minutes and once more rinsed with sodium chloride solution for 1 minute (to remove excess FDA solution). While washing the chamber with FDA solution, sodium chloride solution is dropped onto the cornea (for rapid dilution and removal of the FDA solution flowing back from the chamber). […] Finally, irradiation (0.92 W to 0.64 W) is carded out for 30 seconds, the circular irradiation surface on the plane of the lens being 95 mm^2 (11 mm diameter). […] All investigated irradiation doses (291 mJ/mm^2 to 19 mJ/mm^2) were effective."}, "living cells": {"test_system": "living cells", "assay": "uptake by living cells", "format": "cell-based", "description": "(§1) Fluorescein therefore accumulates temporarily in the cells. […] Intensive irradiation reduces the intensity of fluorescein.\n(§2) Loading the intracellular space of cells with fluorescein is, however, complicated by the fact that FDA is also hydrolysed by esterases in the extracellular fluid. The amount of FDA available for cell loading is thereby reduced. For reproducible clinical use it is therefore advisable to lower the concentration of extracellular esterases. This is conveniently done by washing the environment of the particular area which it is desired to treat. A further problem may arise from the fact that the FDA diffuses away from the site of actual use and, as a consequence thereof, is also taken up by cells that are not to be treated at all. This problem can be countered by optimising the local application of FDA as well as the defined irradiation, typically by using a particularly well focussed beam of light."}, "T4 tumour cells": {"test_system": "T4 tumour cells", "conditions": "over 10 minutes", "from_the_text": "The higher the extracellular concentration of FDA, the higher the resultant intracellular concentration of fluorescein."}, "[2]": {"test_system": "human T24 carcinoma cells", "assay": "intracellular uptake of fluorescein from FDA dissolved in viscous medium Hymecel", "format": "cell-based", "description": "Eight minutes after removal of the viscous solution and washing the cells, the intracellular fluorescein concentration is 0.004 to 0.005 mmol/l after 0.01 mmol/l of FDA, 0.007 to 0.009 mmol/l after 0.02 mmol/l of FDA and 0.019 mmol/l after 0.04 mmol/l of FDA."}, "rabbit eye cornea": {"test_system": "rabbit eye cornea", "assay": "cytotoxic effect of irradiation of intracellular fluorescein in vivo on rabbit eye cornea", "conditions": "for lowest effective energy for fading effect: 488 nm argon laser", "protocol": "The cytotoxic effect of the irradiation of intracellular fluorescein with 488 nm laser light (argon) is investigated in vivo on rabbit eye cornea. FDA solution is dropped on to the cornea for 10 minutes, followed by washing with physiological sodium chloride solution. Irradiation is afterwards effected. The intensity of florescence on the cornea rises sharply during this time, then slowly falls to zero over about 5 hours after washing. Irradiation of the fluorescing cornea results in black specks the size of which matches the area irradiated by the laser. The lowest effective energy for this fading effect is about 2.4 J/mm^2 with 0.01 mmol/l of FDA and 0.11 J/mm^2 with 0.02 mmol/l of FDA. […] The lower limit of the irradiation energy for this cytotoxic effect is up to 0.38 mJ/mm^2 (5 seconds and 20 seconds) using 0.02 mmol/l of FDA."}, "in vitro": {"assay": "in vitro", "conditions": "human, t24 carcinoma cells", "from_the_text": "as §3"}, "[3]": {"test_system": "human T24 carcinoma cells", "assay": "fading of intracellular fluorescein on irradiation in T24 carcinoma cells", "format": "cell-based"}, "uptake by living cells": {"assay": "uptake by living cells", "format": "cell-based", "conditions": "living cells; intracellular; read-out: half-life of fluorescein within a cell", "description": "as §1, §2"}, "[4]": {"test_system": "human T24 carcinoma cells", "assay": "cells", "conditions": "read-out: cells killed", "description": "The cytoxic action of irradiation (excitation 480 nm) of intracellular fluorescein from FDA is investigated using tissue culture of human T24 carcinoma cells. This is done by fluorometric determination of the intracellular fluorescein concentration under a microscope (excitation 480 nm; emission 520 nm) in single cells and the vitality via the uptake of propidium iodide."}}, "note": "Like-named read-outs stand apart in the source and are kept apart here.", "data": [{"smiles": "CC(=O)Oc1ccc2c(c1)Oc1cc(OC(C)=O)ccc1C21OC(=O)c2ccccc21", "note": "[FDA, fluorescein diacetate]", "values": [{"measurement": "intracellular fluorescein concentration", "setting": "[1]; 0.0001 mmol/l of FDA", "result": "no longer measurable"}, {"measurement": "intracellular fluorescein concentration", "setting": "[1]; 0.001 mmol/l of FDA, after 10 minutes", "result": 0.004, "unit": "mmol/L"}, {"measurement": "intracellular fluorescein concentration", "setting": "[1]; 0.01 mmol/l of FDA, after 10 minutes", "result": 0.01, "unit": "mmol/L"}, {"measurement": "intracellular fluorescein concentration", "setting": "[1]; 0.02 mmol/l of FDA, after 10 minutes", "result": 0.015, "unit": "mmol/L"}, {"measurement": "intracellular fluorescein concentration", "setting": "[1]; 0.04 mmol/l of FDA, after 10 minutes", "result": 0.017, "unit": "mmol/L"}, {"measurement": "duration of linear rise of intracellular fluorescein concentration", "setting": "[1]; FDA added to medium", "result": "about 4 minutes"}, {"measurement": "time to approximately plateau values of intracellular fluorescein concentration", "setting": "[1]; FDA added to medium", "result": "about 10 minutes"}, {"measurement": "effectiveness of investigated irradiation doses", "setting": "rabbit lens epithelium; 291 mJ/mm^2 to 19 mJ/mm^2", "result": "effective"}, {"measurement": "fluorescence of the cornea surface near the incision site", "setting": "rabbit lens epithelium; FDA solution in anterior chamber", "result": "fluoresces minimally"}, {"measurement": "fluorescence of the lens surface after irradiation", "setting": "rabbit lens epithelium; after irradiation", "result": "no longer fluoresces"}, {"measurement": "fluorescence of the anterior lens capsule", "setting": "rabbit lens epithelium; before irradiation, epifluorescent stereomicroscope", "result": "constant marked increase of fluorescence"}, {"measurement": "histological evaluation of lens in irradiation field", "setting": "rabbit lens epithelium; sacrificed about 18 hours later, irradiation 30 seconds", "result": "total necrosis of the lens epithelium and microscopically unchanged basal membrane, pyknotic nuclear residues and edematous swelling of the anterior subcapsular area of the lens"}, {"measurement": "uptake by living cells", "setting": "living cells", "result": "readily taken up by most living cells"}, {"measurement": "plateau concentration of intracellular fluorescein", "setting": "T4 tumour cells; 1 μm FDA solution", "result": 25, "unit": "μm"}, {"measurement": "plateau concentration of intracellular fluorescein", "setting": "T4 tumour cells; 100 μm FDA solution", "result": 70, "unit": "μm"}, {"measurement": "intracellular fluorescein concentration", "setting": "[2]; 0.04 mmol/l of FDA in Hymecel, 8 minutes after removal and washing", "result": 0.019, "unit": "mmol/L"}, {"measurement": "increase in intracellular fluorescein concentration and plateau values versus aqueous medium", "setting": "[2]; FDA in Hymecel", "result": "approximately match those after incubation of the cells in aqueous medium"}, {"measurement": "lowest effective energy for fading effect", "setting": "rabbit eye cornea; 0.01 mmol/l of FDA", "result": "about 2.4 J/mm^2"}, {"measurement": "lower limit of irradiation energy for cytotoxic effect", "setting": "rabbit eye cornea; 0.02 mmol/l of FDA, 5 seconds and 20 seconds", "result": "up to 0.38 mJ/mm^2"}, {"measurement": "lowest effective energy for fading effect", "setting": "rabbit eye cornea; 0.02 mmol/l of FDA", "result": 0.11, "unit": "J/mm^2"}, {"measurement": "time for cornea fluorescence to fall to zero after washing", "setting": "rabbit eye cornea; FDA solution dropped on cornea for 10 minutes", "result": "about 5 hours"}, {"measurement": "histology of irradiated cornea (black specks)", "setting": "rabbit eye cornea; irradiated fluorescing cornea", "result": "areas of dead epithelial cells in the outermost layer of the cornea"}]}, {"smiles": "O=C1OC2(c3ccc(O)cc3Oc3cc(O)ccc32)c2ccccc21", "note": "[fluorescein]", "values": [{"measurement": "half-life", "setting": "in vitro", "result": "10 to 25", "unit": "min"}, {"measurement": "kinetics order of exclusion of fluorescein from the individual cells", "setting": "[1]; after removal of FDA from the medium", "result": "first order kinetics"}, {"measurement": "uptake of pure fluorescein added to the cells", "setting": "[1]; pure fluorescein", "result": "No uptake can be observed"}, {"measurement": "fading on irradiation for observation", "setting": "[3]; 0.1 mW/mm^2, 1 to 10 minutes", "result": "no measurable fading"}, {"measurement": "lower level of intracellular fluorescein for a fading effect", "setting": "[3]; 71 mJ/mm^2, irradiation time 120 seconds", "result": 0.004, "unit": "mmol/L"}, {"measurement": "lower level of intracellular fluorescein for a fading effect", "setting": "[3]; 560 mJ/mm^2, irradiation time 120 seconds", "result": 0.002, "unit": "mmol/L"}, {"measurement": "half-life", "setting": "uptake by living cells", "result": "~15", "unit": "min"}, {"measurement": "uptake by living cells", "setting": "living cells", "result": "virtually not taken up by living cells"}, {"measurement": "cytotoxicity at 7 µM", "setting": "[4]; 15 s", "result": 50, "unit": "%"}, {"measurement": "cytotoxicity at 13 µM", "setting": "[4]; 15 s", "result": 50, "unit": "%"}, {"measurement": "cytotoxicity at 3 µM", "setting": "[4]; 2 min", "result": 50, "unit": "%"}, {"measurement": "cytotoxicity at 5 µM", "setting": "[4]; 2 min", "result": 50, "unit": "%"}]}]}
